ChEMBL document CHEMBL1127715, “Perhydrothiopyranopyrroles derivatives : A novel series of potent and selective nonpeptide NK1 antagonists” (Bioorg Med Chem Lett, 1994)

Columns and labels:
Substance-P receptor [1] = target: T1, Substance-P receptor (Homo sapiens, UniProt P25103); test: Compound was evaluated for its affinity, measured in [3H]SP binding assay on human IM9 lymphoblast cultured cell line
Substance-P receptor [2] = target: Substance-P receptor (Rattus norvegicus, UniProt P14600); test: Compound was evaluated for its affinity to rat Tachykinin receptor 1
Mus musculus = organism: Mus musculus; test: Compound was evaluated for inhibiting PBQ induced writhing in mice perorally; format: functional
Cavia porcellus = organism: Cavia porcellus; test: Compound was evaluated for antagonism of the contractile effect in guinea pig ileum preparation; format: functional
Substance-P receptor [3] = target: Substance-P receptor (Cavia porcellus, UniProt P30547); test: Compound was evaluated for its affinity to guinea pig Tachykinin receptor 1
Substance-P receptor [4] = target: T1, Substance-P receptor; test: Compound was evaluated for binding affinity against human Tachykinin receptor 1

T1 sequence (P25103 whole entry): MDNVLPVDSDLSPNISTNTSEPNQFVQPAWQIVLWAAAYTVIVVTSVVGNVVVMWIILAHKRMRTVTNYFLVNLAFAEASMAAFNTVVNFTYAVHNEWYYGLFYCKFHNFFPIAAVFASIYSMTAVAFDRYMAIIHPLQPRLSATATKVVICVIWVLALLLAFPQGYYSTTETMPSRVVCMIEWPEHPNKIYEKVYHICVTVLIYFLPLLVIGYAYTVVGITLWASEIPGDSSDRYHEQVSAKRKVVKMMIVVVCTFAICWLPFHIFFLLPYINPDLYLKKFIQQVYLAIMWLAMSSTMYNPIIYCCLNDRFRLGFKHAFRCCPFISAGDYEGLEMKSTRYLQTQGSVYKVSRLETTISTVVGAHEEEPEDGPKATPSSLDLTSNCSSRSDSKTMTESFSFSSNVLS
Sequence of Substance-P receptor (Cavia porcellus, UniProt P30547) (P30547 whole entry): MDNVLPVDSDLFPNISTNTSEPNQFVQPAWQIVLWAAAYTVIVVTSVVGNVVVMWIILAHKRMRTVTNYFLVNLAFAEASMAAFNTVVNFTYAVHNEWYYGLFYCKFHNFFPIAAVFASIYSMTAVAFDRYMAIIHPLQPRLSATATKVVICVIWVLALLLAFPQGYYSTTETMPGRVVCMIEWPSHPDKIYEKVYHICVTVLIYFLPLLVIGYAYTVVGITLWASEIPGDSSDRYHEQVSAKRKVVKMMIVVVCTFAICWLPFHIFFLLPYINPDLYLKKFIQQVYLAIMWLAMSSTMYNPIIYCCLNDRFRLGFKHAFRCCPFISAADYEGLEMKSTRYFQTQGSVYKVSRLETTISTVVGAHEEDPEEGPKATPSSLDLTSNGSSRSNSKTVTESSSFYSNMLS
Sequence of Substance-P receptor (Rattus norvegicus, UniProt P14600) (P14600 whole entry): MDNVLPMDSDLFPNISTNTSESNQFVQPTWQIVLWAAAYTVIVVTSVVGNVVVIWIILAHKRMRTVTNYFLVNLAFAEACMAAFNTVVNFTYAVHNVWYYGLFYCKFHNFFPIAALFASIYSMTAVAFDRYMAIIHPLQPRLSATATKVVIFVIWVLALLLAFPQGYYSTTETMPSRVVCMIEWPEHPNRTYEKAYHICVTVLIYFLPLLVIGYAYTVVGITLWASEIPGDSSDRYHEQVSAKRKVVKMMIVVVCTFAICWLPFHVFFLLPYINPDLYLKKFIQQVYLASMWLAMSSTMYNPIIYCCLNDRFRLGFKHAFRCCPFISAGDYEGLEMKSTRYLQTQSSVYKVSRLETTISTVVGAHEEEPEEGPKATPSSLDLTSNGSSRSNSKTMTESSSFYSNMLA

COc1ccccc1[C@H](C)C(=O)N1CC2[C@@H](C1)C(c1ccccc1)(c1ccccc1)CC[S+]2[O-] (stereo partly specified)
IC50 (Substance-P receptor [1]): 0.049 µM
IC50 (Substance-P receptor [2]): 0.01 µM
ED50 (Mus musculus): 5 mg/kg
IC50 (Cavia porcellus): 0.02 µM
IC50 (Substance-P receptor [3]): 0.07 µM
IC50 (Substance-P receptor [4]): 0.023 µM
